Test results: patent US10865216B2, “Tricyclic Gyrase inhibitors” (MERCK SHARP & DOHME CORP., priority 2012, dated 2020)
Converted amounts (≈) assume the structure as drawn. Read-outs that look alike come from different tables or passages of the source. Each block holds one molecule with its values, some of them ahead of it.

Assays:
S. aureus ATCC 13709 = assay: MIC, S. aureus ATCC 13709; assay type: cell-based; settings: for MIC: Staphylococcus aureus
E. coli ATCC 25922 = assay: MIC, E. coli ATCC 25922; assay type: cell-based; settings: for MIC: Escherichia coli
[1] = S. aureus, Alamar Blue read after overnight incubation at 35° C.
[2] = E. coli, Alamar Blue read after overnight incubation at 35° C.
[3] = ATCC13709, S. aureus, Alamar Blue read after overnight incubation at 35° C., read-out: MIC Sa
[4] = ATCC25922, E. coli, Alamar Blue read after overnight incubation at 35° C., read-out: MIC Ec
[5] = ATCC13709, Table 16, new R4 substituents, read-out: SA MIC
[6] = ATCC25922, Table 16, new R4 substituents, EC8 not defined, read-out: EC8 MIC

SMILES: CNc1cc(F)cc2c1[nH]c1nc(Oc3cnc(N(C)C)nc3)nc(N3CC4C(N)C4C3)c12 (stereo not drawn) [Compound 4.208]
MIC Sa (S. aureus ATCC 13709; [1]): ≤0.5 µg/mL
MIC Ec (E. coli ATCC 25922; [2]): ≤0.5 µg/mL

SMILES: CNc1cc(F)cc2c1[nH]c1nc(Oc3cnc(C)nc3)nc(N3CCC(C4CNC4)C3)c12 (stereo not drawn)
MIC (S. aureus ATCC 13709; [5]): ≤ 0.5 µg/mL
MIC (E. coli ATCC 25922; [6]): 8 µg/mL (≈ 17.8 µM)

SMILES: CNc1cc(F)cc2c1[nH]c1nc(Oc3cnc(C)nc3)nc(N3CC[C@H](CN)C3)c12
MIC (S. aureus ATCC 13709; [5]): ≤ 0.5 µg/mL
MIC (E. coli ATCC 25922; [6]): ≤ 0.5 µg/mL

SMILES: CNc1cc(F)cc2c1[nH]c1nc(Oc3cnc(N)nc3)nc(N3CC4CC(N)C4C3)c12 (stereo not drawn) [Compound 4.190]
MIC Sa (S. aureus ATCC 13709; [1]): ≤0.5 µg/mL
MIC Ec (E. coli ATCC 25922; [2]): 1 µg/mL (≈ 2.3 µM)

SMILES: CNc1cc(F)cc2c1[nH]c1nc(Oc3cnc(C(C)C#N)nc3)nc(N3C[C@H]4C[C@@H]3C[C@H]4N)c12 (stereo partly drawn) [Compound 10.91]
MIC Sa (S. aureus ATCC 13709; Table 18, Sa): 4 µg/mL (≈ 8.45 µM)
MIC Ec (E. coli ATCC 25922; Table 18, Ec): > 16 µg/mL

SMILES: CNc1cc(F)cc2c1[nH]c1nc(Oc3cnc(NC4CC4)nc3)nc(N3CC4C(N)C4C3)c12 (stereo not drawn) [Compound 4.223]
MIC Sa (S. aureus ATCC 13709; [1]): ≤0.5 µg/mL
MIC Ec (E. coli ATCC 25922; [2]): ≤0.5 µg/mL

SMILES: CNc1cccc2c1[nH]c1nc(Sc3cnc4cccnc4c3)nc(N3C[C@H](N)C[C@H]3C)c12 [Compound 1.61]
MIC (S. aureus ATCC 13709; [3]): 8 µg/mL (≈ 17.5 µM)
MIC (E. coli ATCC 25922; [4]): 64 µg/mL (≈ 140 µM)

SMILES: CNc1cc(F)cc2c1[nH]c1nc(Oc3cncnc3)nc(N3CC4CC4(N)C3)c12 (stereo not drawn) [Compound 4.005]
MIC Sa (S. aureus ATCC 13709; [1]): ≤0.5 µg/mL
MIC Ec (E. coli ATCC 25922; [2]): ≤0.5 µg/mL

SMILES: CNc1cc(F)cc2c1[nH]c1nc(Cc3cnc(C)nc3)nc(N3CC4C(N)C4C3)c12 (stereo not drawn) [drawing 1737]
SA MIC (S. aureus ATCC 13709; Table 11, compounds wherein L = CH2): ≤ 0.5 µg/mL
EC8 MIC (E. coli ATCC 25922; Table 11, L = CH2, EC8 not defined): 0.25 µg/mL

Now from value to molecule:

MIC Sa (S. aureus ATCC 13709; [1]): ≤0.5 µg/mL
MIC Ec (E. coli ATCC 25922; [2]): ≤0.5 µg/mL
SMILES: CNc1cc(F)cc2c1[nH]c1nc(Oc3cnc(C4CC4)nc3)nc(N3CC4CC4(CN)C3)c12 (stereo not drawn) [Compound 4.246]

MIC Sa (S. aureus ATCC 13709; [1]): ≤0.5 µg/mL
MIC Ec (E. coli ATCC 25922; [2]): ≤0.5 µg/mL
SMILES: CNc1cc(F)cc2c1[nH]c1nc(Oc3cncc(C#N)c3)nc(N3CC4(CCC4N)C3)c12 (stereo not drawn) [Compound 4.054]

MIC (S. aureus ATCC 13709; [3]): 1 µg/mL (≈ 2.33 µM)
MIC (E. coli ATCC 25922; [4]): > 64 µg/mL
SMILES: CNc1cccc2c1[nH]c1nc(Sc3cnc4cccnc4c3)nc(N3CC(N)C3)c12 [Compound 1.29]

MIC Sa (S. aureus ATCC 13709; [1]): ≤0.5 µg/mL
MIC Ec (E. coli ATCC 25922; [2]): ≤0.5 µg/mL
SMILES: CNc1cc(F)cc2c1[nH]c1nc(Oc3cnc(C(C)C)nc3)nc(N3CC4C(N)C4C3)c12 (stereo not drawn) [Compound 4.232]

MIC Sa (S. aureus ATCC 13709; Table 18, Sa): ≤ 0.5 µg/mL
MIC Ec (E. coli ATCC 25922; Table 18, Ec): 1 µg/mL (≈ 1.99 µM)
SMILES: CNc1cc(F)cc2c1[nH]c1nc(Oc3cnc4c(c3)C(=O)N(C)C4C)nc(N3CC4(CC[C@H]4N)C3)c12 (stereo partly drawn) [Compound 10.83]

MIC Sa (S. aureus ATCC 13709; [1]): 32 µg/mL (≈ 67.2 µM)
MIC Ec (E. coli ATCC 25922; [2]): >64 µg/mL
SMILES: NC1C2CN(c3nc(Sc4cnc5ccc[n+]([O-])c5c4)nc4[nH]c5c(Cl)cccc5c34)CC12 (stereo not drawn) [Compound 1.03]

MIC Sa (S. aureus ATCC 13709; [1]): 32 µg/mL (≈ 60.5 µM)
MIC Ec (E. coli ATCC 25922; [2]): >64 µg/mL
SMILES: NC1CN(c2nc(Sc3cnc4ccc[n+]([O-])c4c3)nc3[nH]c4c(NC5CC5)cc(F)cc4c23)CC12CC2 (stereo not drawn) [Compound 1.02]

MIC (S. aureus ATCC 13709; [3]): 8 µg/mL (≈ 19 µM)
MIC (E. coli ATCC 25922; [4]): 16 µg/mL (≈ 38.1 µM)
SMILES: Cc1ncc(Oc2nc(N3CC4CC3C[C@H]4N)c3c(n2)[nH]c2c(N)cc(F)cc23)cn1 (stereo partly drawn) [Compound 2.16]

MIC Sa (S. aureus ATCC 13709; Table 18, Sa): ≤ 0.5 µg/mL
MIC Ec (E. coli ATCC 25922; Table 18, Ec): ≤ 0.5 µg/mL
SMILES: CNc1cc(F)cc2c1[nH]c1nc(Oc3cnc4ccnn4c3)nc(N3C[C@H]4CCN[C@H]4C3)c12 [Compound 10.13]

MIC Sa (S. aureus ATCC 13709; [1]): ≤0.5 µg/mL
MIC Ec (E. coli ATCC 25922; [2]): ≤0.5 µg/mL
SMILES: CNc1cc(F)cc2c1[nH]c1nc(Oc3cnc(N4CCC4)nc3)nc(N3CC4C(N)C4C3)c12 (stereo not drawn) [Compound 4.296]

MIC Sa (S. aureus ATCC 13709; Table 18, Sa): ≤ 0.5 µg/mL
MIC Ec (E. coli ATCC 25922; Table 18, Ec): ≤ 0.5 µg/mL
SMILES: CNc1cc(F)cc2c1[nH]c1nc(Oc3cnc(C(C)O)nc3)nc(N(C)C)c12 (stereo not drawn) [Compound 10.101]

MIC (S. aureus ATCC 13709; [3]): 1 µg/mL (≈ 2.39 µM)
MIC (E. coli ATCC 25922; [4]): 2 µg/mL (≈ 4.78 µM)
SMILES: CNc1cccc2c1[nH]c1nc(Sc3cncnc3)nc(N3CC(N)C4(CC4)C3)c12 (stereo not drawn) [Compound 1.44]
